In patent publication US8324228B2, “Pyrimidine classical cannabinoid compounds and related methods of use” (priority 2008, dated 2012):

Test system: glioblastoma brain cancer cell line LN-229
Experiment: Cytotoxicity assay (CCK8 viability)
Type: cell-based
Conditions: Homo sapiens, cytotoxicity against LN-229 cells, 18 hours incubation
Protocol: Cytoxocity assay: Cells were seeded on a 96 well polystyrene plate in full serum media at a density of 75,000 cells per milliliter, 100 μL per well. Plates were incubated at 37° C. and 5% CO2 for 24 hours to allow cell attachment. Drug solutions were prepared in DMSO at 100× concentration and mixed 1:100 in 1% FBS media to yield the desired concentration. Drug-media mixtures were vortexed immediately prior to administration to cells. Full serum media was removed and replaced with drug-media mixtures and incubated for 18 hours. 10 μL of Cell Counting Kit 8 (CCK8, Dojindo# CK04-11) was added to each well to colormetrically assess viability. After 2-4 hours of incubation with the CCK8 dye, absorbance was read at 450 nm by a BioTek Synergy 2 plate reader.
The cytotoxicity of selected compounds against the glioblastoma brain cancer cell line LN-229 is depicted in Table 1.

For `CCCCCCC(C)(C)c1nc(O)c2c(n1)OC(C)(C)[C@H]1CC[C@@H](C)C[C@@H]21` [Compound 6b, (6aS,9R,10aR)-6,6,9-Trimethyl-3-(2-methyloctan-2-yl)-6a,7,8,9,10,10a-hexahydro-6H-isochromeno[3,4-d]pyrimidin-1-ol], which EC50 is on record?
The EC50 was 27.3 µM.

`C[C@@H]1CC[C@H]2[C@@H](C1)c1c(O)nc(C(C)(C)C3CCCCC3)nc1OC2(C)C` [Compound 6d, (6aS,9R,10aR)-3-(2-Cyclohexylpropan-2-yl)-6,6,9-trimethyl-6a,7,8,9,10,10a-hexahydro-6H-isochromeno[3,4-d]pyrimidin-1-ol] was tested. Which EC50 did it give?
The EC50 was 10.6 µM.

With `C[C@@H]1CC[C@H]2[C@@H](C1)c1c(O)nc(C(C)(C)c3cccs3)nc1OC2(C)C` [Compound 6e, (6aS,9R,10aR)-6,6,9-Trimethyl-3-(2-(thiophen-2-yl)propan-2-yl)-6a,7,8,9,10,10a-hexahydro-6H-isochromeno[3,4-d]pyrimidin-1-ol] as the compound, how does the EC50 read?
The EC50 was 30.1 µM.
